Measurements from patent publication US4351948A, “Imidazole hydrazone derivatives” (priority 1980, dated 1982).
Where two headings read alike, the source gives them in different places.

Columns and labels:
C. albicans = assay: Recovery of viable candida cells from the kidneys of infected mice (p.o. and i.v. treatment); assay type: in vivo; conditions: 25 mg/kg 1 h and 24 h after infection
Experimental: Mice receive 25×10^4 cells of C. albicans i.v. Treatments (25 mg/kg) administered in PEG/Dextrose 1 h and 24 h after infection. Animals sacrified 48 h after infection and kidneys excised, weighed, homogenized and decimal dilutions spread on glucose-peptone agar.

candida = assay: Intravenous administration: recovery of viable candida cells from the kidneys of infected mice; assay type: in vivo; conditions: 25 mg/ml
in vivo = conditions: male mice, 7 day
[1] = system: platelet thromboxane generation; assay: Inhibition of platelet thromboxane generation (TxB2, collagen-stimulated human platelet rich plasma); assay type: cell-based; conditions: Homo sapiens, 10 min, read-out: Activity IC50 (50% inhibition of TxB2 generation)
Experimental: The compounds used according to the invention as anti-thrombotics were tested by the following method for their ability to inhibit platelet thromboxane generation.
Human venous blood was collected from healthy male donors, who had denied any medication in the previous 14 days. Nine volumes of blood were mixed with one volume of 3.24% trisodium citrate. The citrated blood was centrifuged at 160 g for 10 mins. at 22° C. to obtain platelet rich plasma (PRP). The platelets were then counted on a Coulter counter, and the platelet count was adjusted to 200,000 per μl with plasma.
The PRP was then dispensed as aliquots into micro-Eppendorf tubes, maintained at 37° C. in a dry bath. The compounds dissolved either in saline, ethanol, or DMSO were added in duplicate to the PRP aliquots to produce final concentrations of 0.3, 3 and 30 μg/ml. When ethanol and DMSO were used as the vehicle, triplicate controls containing the same percentage of vehicle as the test compounds were made. The final concentration or organic solvent was never more than 0.1%, which in previous experiments had no effect on TxB2 generation.
Following a 10 min. incubation with test compounds or vehicle, collagen was added to produce a final concentration of 8 μg/ml. The tubes were then whirly-mixed for 15 seconds and replaced in the dry bath for a further 10 minutes, controls received saline instead of collagen. The reaction was then stopped by rapid centrifugation, 15,000 g for 3 mins. The plasma was removed and frozen at -29° C. until assayed.
Briefly, 100 μl aliquots, in tricine buffered saline+0.8% gelatin (pH 8.0) of the following were incubated together for 1 hour at 37° C.: thromboxane Tx B2 (plasma extract, spiked plasma extract or standards 20 to 20,000 pg/ml), ^3 H--TxB2 (approximately 15,000 dpm) and anti-TxB2 antiserum (0.5 μg/100 μl). The free and protein bound ^3 H--TxB2 were separated by ammonium sulphate precipitation followed by centrifugation. 300 μl of the supernatant was added to an aqueous scintillation fluid, and the radioactivity present was counted in a liquid scintillation counter. The binding of ^3 H--TxB2 in the absence of added TxB2 was approximately 55%. The least amount of TxB2 to be detected accurately in the plasma was 0.08 ng/ml. Cross reactivity with other prostaglandins is less than 0.005% except PGD2 which is 1%.
Thus plasma samples were assayed to give a rough approximation of TxB2 content. The plasma was then appropriately diluted and assayed in duplicate to give accurate values.
The amount of TxB2 generated by the collagen was calculated by subtracting mean values obtained for the saline stimulated platelets from the mean values obtained from the collagen stimulated platelets. Then the amount of TxB2 generated in the presence of each concentration of compound was expressed as a % control and dose response curves were then constructed to determine the concentration of compound which produced a 50% inhibition.

[2] = system: Bacteroides fragilis ATCC 23745; assay: Minimal inhibitory concentration against anaerobic bacteria; conditions: ATCC23745, 24 h
[3] = system: Bacteroides uniformis ATCC 8492; assay: as above; conditions: ATCC8492, 24 h
[4] = system: Desulfovibrio desulfuricans API-BREWER; assay: as above; conditions: 24 h
[5] = system: Desulfovibrio desulfuricans API-SW2; assay: as above; conditions: for Minimal Inhibitory Concentration: 24 hours at 37° C.
[6] = read-out: Minimal Inhibitory Concentration, Test 1, 24 hours at 37° C.
[7] = read-out: Minimal Inhibitory Concentration, Test 2, 24 hours at 37° C.
[8] = read-out: Minimal Inhibitory Concentration, Test 3, 24 hours at 37° C.

Cl.Clc1ccc(/C(Cn2ccnc2)=N\Nc2ccc(Cl)cc2Cl)cc1 [HC274, (E)-1-(4-chlorophenyl)-2-(1H-imidazol-1-yl)ethanone, 2,4-dichlorophenylhydrazone, hydrochloride]
No. of CFU/g kidney at 48 h (C. albicans; i.v.): 9 × 10^2 CFU/g kidney
No. of CFU/g kidney at 48 h (C. albicans; p.o.): 3.3 × 10^3 CFU/g kidney
CFU/g kidney (candida): 7.7 × 10^3 CFU/g kidney
CFU/g kidney, % of control (candida): 52 % of control
LD50 at 168 h (in vivo; mouse, in vivo, iv, read-out: LD50): 85 mg/kg
LD12.5 (in vivo; p.o.): 440 mg/kg
IC50 [1]: 15.9 µM
MIC [2, 6]: 2.5 µg/mL
MIC [2, 7]: 5 µg/mL
MIC [2, 8]: 7.5 µg/mL
MIC [3, 6]: 2.5 µg/mL
MIC [3, 7]: 2.5 µg/mL
MIC [3, 8]: 5 µg/mL
MIC [4, 6]: 0.75 µg/mL
MIC [4, 7]: 1 µg/mL
MIC [4, 8]: 0.5 µg/mL
MIC ([5]; Desulfovibrio desulfuricans, APISW2, 24 h, read-out: Minimal Inhibitory Concentration): 1 µg/mL
Minimal Inhibitory Concentration ([5]; Test 2): 1.0 mg/L
Minimal Inhibitory Concentration ([5]; Test 3): 1.0 mg/L
